Experimental data taken from EPA's ToxRefDB 2.

Assays:
[1] = tested on: rat; details: Multigenerational reproductive toxicity study, other, Oral, Feed, dose end: 3 generation, group: parental
[2] = tested on: rat; details: Multigenerational reproductive toxicity study, sprague dawley, Oral, Gavage/Intubation, dose end: 2 generation, group: parental
[3] = tested on: rat; details: Carcinogenicity, fischer, Oral, Gavage/Intubation, dose end: 2 year, group: systemic
[4] = tested on: mouse; details: Carcinogenicity, b6c3f1, Oral, Gavage/Intubation, dose end: 2 year, group: systemic
[5] = tested on: rabbit; details: Prenatal developmental toxicity study, new zealand white, Oral, Gavage/Intubation, dose end: 18 GD
[6] = tested on: rat; details: Subchronic oral toxicity in rodents, fischer, Gavage/Intubation, dose end: 13 week, group: systemic
[7] = tested on: mouse; details: Subchronic oral toxicity in rodents, b6c3f1, Gavage/Intubation, dose end: 13 week, group: systemic, systemic / in life observation / clinical signs / lethargy + systemic / organ weight / liver / absolute + systemic / organ weight / liver / …
[8] = tested on: rat; details: Prenatal developmental toxicity study, sprague dawley, Oral, Gavage/Intubation, dose end: 15 GD
[9] = tested on: rat; details: Fertility (Segment I); sprague dawley; Oral; Gavage/Intubation; dose end: 4 week; group: parental; systemic / organ weight / epididymis / relative to body weight + systemic / pathology microscopic / epididymis / [other] + systemic / …
[10] = systemic / in life observation / body weight / body weight gain
[11] = systemic / in life observation / mortality / mortality + systemic / pathology microscopic / liver / hypertrophy + systemic / pathology …
[12] = systemic / in life observation / clinical signs / tremors + systemic / in life observation / body weight / body weight gain
[13] = systemic / in life observation / body weight / body weight + systemic / organ weight / kidney / relative to body weight + systemic / …
[14] = systemic / in life observation / body weight / body weight + systemic / pathology microscopic / blood / leukemia mononuclear
[15] = systemic / in life observation / body weight / body weight + systemic / pathology microscopic / thyroid gland / hyperplasia + systemic / …
[16] = systemic / pathology microscopic / thyroid gland / hyperplasia + systemic / pathology microscopic / liver / cytomegaly + systemic / …
[17] = group: developmental, developmental / developmental malformation / bone / bent + developmental / developmental malformation / eye / microphthalmia
[18] = group: maternal, systemic / in life observation / body weight / body weight + systemic / in life observation / body weight / body weight gain + systemic / in…
[19] = systemic / organ weight / liver / absolute + systemic / organ weight / liver / relative to body weight
[20] = group: developmental, systemic / in life observation / body weight / fetal weight
[21] = group: maternal, systemic / in life observation / clinical signs / urine, discoloration
[22] = group: maternal, systemic / in life observation / clinical signs / urine, discoloration + systemic / in life observation / body weight / body weight + …

With `ClC1C(Cl)C(Cl)C(Cl)C(Cl)C1Cl` (stereo not drawn) [beta-Hexachlorocyclohexane] as the molecule, how does the LEL [1, 10] read?
The LEL was 6.25 mg/kg/day.

What about the NEL [1, 10] of the same molecule?
Its NEL is < 6.25 mg/kg/day.

And the LOAEL [1, 11]?
The LOAEL was > 12.5 mg/kg/day.

What about the NOAEL [1, 11] of the same molecule?
The NOAEL was ≥ 12.5 mg/kg/day.

With `Oc1ccc(O)cc1` [Hydroquinone] as the molecule, how does the NEL ([2]; systemic / in life observation / clinical signs / tremors) read?
The NEL was 50 mg/kg/day.

What about the LEL [2, 12] of the same molecule?
Its LEL is 150 mg/kg/day.

What about the LOAEL [2, 12] of the same molecule?
The LOAEL was > 150 mg/kg/day.

What about the NOAEL [2, 12] of the same molecule?
Its NOAEL is ≥ 150 mg/kg/day.

What about the LOAEL [3, 13] of the same molecule?
The LOAEL was 50 mg/kg/day.

And the NOAEL [3, 13]?
Its NOAEL is 25 mg/kg/day.

And the LEL [3, 14]?
Its LEL is 25 mg/kg/day.

And the NEL [3, 14]?
The NEL was < 25 mg/kg/day.

And the LOAEL [4, 15]?
Its LOAEL is 100 mg/kg/day.

And the NOAEL [4, 15]?
The NOAEL was 50 mg/kg/day.

And the LEL [4, 16]?
Its LEL is 50 mg/kg/day.

And the NEL [4, 16]?
Its NEL is < 50 mg/kg/day.

And the LEL [5, 17]?
Its LEL is 150 mg/kg/day.

What about the LOAEL [5, 17] of the same molecule?
The LOAEL was > 150 mg/kg/day.

And the NEL [5, 17]?
The NEL was 75 mg/kg/day.

And the NOAEL [5, 17]?
Its NOAEL is ≥ 150 mg/kg/day.

What about the LOAEL [5, 18] of the same molecule?
The LOAEL was > 150 mg/kg/day.

And the NEL [5, 18]?
The NEL was 25 mg/kg/day.

What about the NOAEL [5, 18] of the same molecule?
The NOAEL was ≥ 150 mg/kg/day.

What about the LEL ([5]; group: maternal, systemic / in life observation / food consumption / food consumption) of the same molecule?
Its LEL is 75 mg/kg/day.

What about the LOAEL ([6]; systemic / in life observation / clinical signs / lethargy + systemic / pathology microscopic / kidney / degeneration + systemic / pathology…) of the same molecule?
Its LOAEL is 200 mg/kg/day.

And the LEL [6, 19]?
The LEL was 25 mg/kg/day.

And the NEL [6, 19]?
Its NEL is < 25 mg/kg/day.

And the NOAEL ([6]; systemic / organ weight / liver / absolute + systemic / organ weight / liver / relative to body weight + systemic / in life observation / …)?
The NOAEL was 100 mg/kg/day.

And the LEL [7]?
The LEL was 25 mg/kg/day.

What about the LOAEL [7] of the same molecule?
The LOAEL was > 400 mg/kg/day.

And the NEL [7]?
The NEL was < 25 mg/kg/day.

What about the NOAEL [7] of the same molecule?
Its NOAEL is ≥ 400 mg/kg/day.

And the LEL [8, 20]?
The LEL was 300 mg/kg/day.

And the LOAEL [8, 20]?
The LOAEL was > 300 mg/kg/day.

What about the NEL [8, 20] of the same molecule?
Its NEL is 100 mg/kg/day.

What about the NOAEL [8, 20] of the same molecule?
Its NOAEL is ≥ 300 mg/kg/day.

What about the LEL [8, 21] of the same molecule?
The LEL was 30 mg/kg/day.

What about the NEL [8, 21] of the same molecule?
The NEL was < 30 mg/kg/day.

And the LOAEL [8, 22]?
The LOAEL was > 300 mg/kg/day.

What about the NOAEL [8, 22] of the same molecule?
Its NOAEL is ≥ 300 mg/kg/day.

For `COS(C)(=O)=O` [Methyl methanesulfonate], which LEL [9] is on record?
Its LEL is 20 mg/kg/day.

And the LOAEL [9]?
The LOAEL was > 20 mg/kg/day.

And the NEL [9]?
The NEL was < 20 mg/kg/day.

What about the NOAEL [9] of the same molecule?
Its NOAEL is ≥ 20 mg/kg/day.
